Where a name gives a salt, the structure may show the parent alone. Read-outs that look alike come from different tables or passages of the source.
How the values were obtained:
[1] = system: OC43; assay: Drug screening: OC43 nucleoprotein staining in infected A549-mRuby cells; assay type: cell-based, human beta coronavirus OC43
Summary of the method: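 A549 cells expressing H2B-mRuby infected with OC43 at MOI 0.3 for 1 h at 33° C, then drugs added at 10 μM final and incubated 4 days at 33° C. Viral nucleoprotein immunostained and imaged; intensity normalized to cell number and no-drug controls (=100). Hits reduced staining >3 SD in both repeats without toxicity.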

[2] = system: A549-mRuby cells; assay: Drug screening: effect on cell growth (cell number day 4 / day 0); conditions: 10 μM drug; for Growth_1: number of cells at day 4 divided by number of cells at day 0 / toxic_1: repeat #1; for Growth_2: number of cells at day 4 divided by number of cells at day 0 / toxic_2: repeat #2
Summary of the method: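 A549 cells carrying an H2B-mRuby reporter were infected with OC43 at MOI 0.3 for 1 h at 33° C, then given drug at 10 μM final. Cell numbers were counted by imaging at day 0 and again at day 4 after 4 days at 33° C, 5% CO2, with the screen run twice.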

[3] = Betacoronavirus 1, OC43, 96 h, 10 μM drug, MOI 0.3, 4 days, OC43 staining normalized to no-drug controls, mean of the two screen repeats, read-out: OC43_mean
[4] = Betacoronavirus 1, OC43, 96 h, 10 μM drug, MOI 0.3, 4 days, normalized to no-drug controls in the same plate, repeat #1, read-out: OC43_1: % staining of OC43 in screen repeat #1
[5] = Betacoronavirus 1, OC43, 96 h, 10 μM drug, MOI 0.3, 4 days, normalized to no-drug controls in the same plate, repeat #2, read-out: OC43_2: % staining of OC43 in screen repeat #2
[6] = 10 μM drug, MOI 0.3, 4 days, OC43 staining normalized to no-drug controls, mean of the two screen repeats
[7] = 10 μM drug, MOI 0.3, 4 days, normalized to no-drug controls in the same plate, repeat #1
[8] = 10 μM drug, MOI 0.3, 4 days, normalized to no-drug controls in the same plate, repeat #2
[9] = Betacoronavirus 1, OC43, 96 h, read-out: OC43_mean

Compound	hit_1 ([1]; 10 μM drug, repeat #1)	hit_2 ([1]; 10 μM drug, repeat #2)	activity at 10 µM [1, 3] [%]	activity at 10 µM [1, 4] [%]	activity at 10 µM [1, 5] [%]	Growth_1: number of cells at day 4 divided by number of cells at day 0 [2]	toxic_1 [2]	Growth_2: number of cells at day 4 divided by number of cells at day 0 [2]	toxic_2 [2]	OC43_mean [1, 6] [%]	OC43_1: % staining of OC43 in screen repeat #1 [1, 7] [%]	OC43_2: % staining of OC43 in screen repeat #2 [1, 8] [%]	activity at 10 µM [1, 9] [%]	OC43_mean [1] [%]	activity at 10 µM ([1]; Betacoronavirus 1, 96 h, 10 μM drug, MOI 0.3, 4 days, OC43 staining normalized to no-drug controls, mean of the two screen repeats, read-out: OC43_mean) [%]
CNCCCN1c2ccccc2CCc2ccccc21 [Desipramine Hydrochloride]	1	1	21.8	20	23.7	4.4	0	3.9	0	–	–	–	–	–	–
Ifenprodil Tartrate	1	1	–	–	–	4.6	0	4.9	0	25.6	29.0	22.1	–	–	–
CC[C@H]1OC(=O)[C@H](C)[C@@H](O[C@H]2C[C@@](C)(OC)[C@@H](O)[C@H](C)O2)[C@H](C)[C@@H](O[C@@H]2O[C@H](C)C[C@H](N(C)C)[C@H]2O)[C@](C)(O)C[C@@H](C)CN(C)[C@H](C)[C@@H](O)[C@]1(C)O [Azithromycin]	–	–	–	–	–	4.0	–	4.4	–	23.4	20.4	26.4	–	–	–
CC(C)(O)CNc1nc(Nc2ccnc(C(F)(F)F)c2)nc(-c2cccc(C(F)(F)F)n2)n1 [Enasidenib (AG-221), Enasidenib]	1	1	26.1	23.3	29	5.2	0	4.8	0	–	–	–	–	–	–
CN(C)CCCN1c2ccccc2CCc2ccc(Cl)cc21.O [Clomipramine HCl]	1	1	–	13.9	21.6	2.6	0	3.8	0	–	–	–	17.7	–	–
CN1CCN(CCCN2c3ccccc3Sc3ccc(C(F)(F)F)cc32)CC1.Cl.Cl [Trifluoperazine 2HCl]	1	1	–	–	–	2.3	0	2.1	0	31.6	33.8	29.5	–	–	–
COc1ccc(CN2CCN(C(c3ccc(F)cc3)c3ccc(F)cc3)CC2)c(OC)c1OC.Cl.Cl [Lomerizine 2HCl]	1	1	–	–	–	4.7	0	5.3	0	39.9	56.5	23.3	–	–	–
COc1cc2ncnc(Nc3ccc(F)c(Cl)c3)c2cc1OCCCN1CCOCC1 [Gefitinib (ZD1839), Gefitinib]	–	–	–	–	–	3.4	–	3.7	–	35.5	39.7	31.3	–	–	–
CCCCc1oc2ccccc2c1C(=O)c1cc(I)c(OCCN(CC)CC)c(I)c1 [Amiodarone HCl]	1	1	22.8	18.8	26.9	4.6	–	5.4	–	–	–	–	–	–	–
Dimemorfan phosphate	1	1	–	–	–	6.0	0	5.4	0	–	39.7	26.2	–	33.0	–
CCCCOc1cc(C(=O)NCCN(CC)CC)c2ccccc2n1 [Cinchocaine]	1	1	41.6	18.9	64.3	4.3	0	4.2	0	–	–	–	–	–	–
CC(C)(C)c1nc(-c2cccc(NS(=O)(=O)c3c(F)cccc3F)c2F)c(-c2ccnc(N)n2)s1 [Dabrafenib (GSK2118436), Dabrafenib]	1	1	41.6	36.3	47	3.9	0	5.5	0	–	–	–	–	–	–
CS(=O)(=O)CCNCc1ccc(-c2ccc3ncnc(Nc4ccc(OCc5cccc(F)c5)c(Cl)c4)c3c2)o1.Cc1ccc(S(=O)(=O)O)cc1.Cc1ccc(S(=O)(=O)O)cc1 [Lapatinib (GW-572016) Ditosylate]	1	1	–	–	–	5.0	0	5.9	0	24.8	17.6	32.0	–	–	–
C=C[C@]1(C)C[C@@H](OC(=O)CSC(C)(C)CNC(=O)[C@H](N)C(C)C)[C@]2(C)[C@H](C)CC[C@]3(CCC(=O)[C@H]32)[C@@H](C)[C@@H]1O [Valnemulin HCl]	1	1	–	27.7	37.1	4.4	0	4.5	0	–	–	–	–	–	32.4
CNCCCC12CCC(c3ccccc31)c1ccccc12 [Maprotiline HCl]	1	1	26	27	25.1	3.5	0	3.1	0	–	–	–	–	–	–
OCCN1CCN(CCCN2c3ccccc3Sc3ccc(Cl)cc32)CC1 [Perphenazine]	1	1	42.8	59.8	25.8	2.2	0	2.5	0	–	–	–	–	–	–
CCN(CC)CCCC(C)Nc1ccnc2cc(Cl)ccc12 (stereo not drawn) [Chloroquine Phosphate]	1	1	–	11.3	13.1	–	0	–	0	–	–	–	12.2	–	–
Prochlorperazine dimaleate salt	1	1	–	–	–	3.1	0	3.1	0	40.2	47.2	33.1	–	–	–
CCC(=O)O[C@H]1[C@H](O[C@@H]2[C@@H](C)[C@H](O[C@H]3C[C@@](C)(OC)[C@@H](O)[C@H](C)O3)[C@@H](C)C(=O)O[C@H](CC)[C@@](C)(O)[C@H](O)[C@@H](C)C(=O)[C@H](C)C[C@@]2(C)O)O[C@H](C)C[C@@H]1N(C)C [Erythromycin estolate]	1	1	20.1	24.2	15.9	4.5	0	4.8	0	–	–	–	–	–	–
COc1cc2c(cc1OC)CN(CCc1ccc(NC(=O)c3cccc4c(=O)c5cccc(OC)c5[nH]c34)cc1)CC2 [Elacridar (GF120918), Elacridar]	1	1	31.4	24.4	38.3	4.6	0	5.8	0	–	–	–	–	–	–
CN1CCN(C2=Nc3cc(Cl)ccc3Nc3ccccc32)CC1 [Clozapine]	1	1	31.3	15.8	46.9	4.6	0	4.3	0	–	–	–	–	–	–

Reference: patent US20230285405A1, “Pharmaceuticals for Treating or Preventing Nidoviruses and Picornaviruses” (priority 2020, published 2023)
